Reference: ChEMBL document CHEMBL4706771, “Discovery of Orally Bioavailable Ligand Efficient Quinazolindiones as Potent and Selective Tankyrases Inhibitors” (ACS Med Chem Lett, 2021)

What was measured:
[1] = molecular target: T1, Poly [ADP-ribose] polymerase tankyrase-1 (Homo sapiens, UniProt O95271); test: Inhibition of human TNKS1 incubated for 1 to 2 hrs by fluorescence polarization assay
T1 sequence (O95271 whole entry): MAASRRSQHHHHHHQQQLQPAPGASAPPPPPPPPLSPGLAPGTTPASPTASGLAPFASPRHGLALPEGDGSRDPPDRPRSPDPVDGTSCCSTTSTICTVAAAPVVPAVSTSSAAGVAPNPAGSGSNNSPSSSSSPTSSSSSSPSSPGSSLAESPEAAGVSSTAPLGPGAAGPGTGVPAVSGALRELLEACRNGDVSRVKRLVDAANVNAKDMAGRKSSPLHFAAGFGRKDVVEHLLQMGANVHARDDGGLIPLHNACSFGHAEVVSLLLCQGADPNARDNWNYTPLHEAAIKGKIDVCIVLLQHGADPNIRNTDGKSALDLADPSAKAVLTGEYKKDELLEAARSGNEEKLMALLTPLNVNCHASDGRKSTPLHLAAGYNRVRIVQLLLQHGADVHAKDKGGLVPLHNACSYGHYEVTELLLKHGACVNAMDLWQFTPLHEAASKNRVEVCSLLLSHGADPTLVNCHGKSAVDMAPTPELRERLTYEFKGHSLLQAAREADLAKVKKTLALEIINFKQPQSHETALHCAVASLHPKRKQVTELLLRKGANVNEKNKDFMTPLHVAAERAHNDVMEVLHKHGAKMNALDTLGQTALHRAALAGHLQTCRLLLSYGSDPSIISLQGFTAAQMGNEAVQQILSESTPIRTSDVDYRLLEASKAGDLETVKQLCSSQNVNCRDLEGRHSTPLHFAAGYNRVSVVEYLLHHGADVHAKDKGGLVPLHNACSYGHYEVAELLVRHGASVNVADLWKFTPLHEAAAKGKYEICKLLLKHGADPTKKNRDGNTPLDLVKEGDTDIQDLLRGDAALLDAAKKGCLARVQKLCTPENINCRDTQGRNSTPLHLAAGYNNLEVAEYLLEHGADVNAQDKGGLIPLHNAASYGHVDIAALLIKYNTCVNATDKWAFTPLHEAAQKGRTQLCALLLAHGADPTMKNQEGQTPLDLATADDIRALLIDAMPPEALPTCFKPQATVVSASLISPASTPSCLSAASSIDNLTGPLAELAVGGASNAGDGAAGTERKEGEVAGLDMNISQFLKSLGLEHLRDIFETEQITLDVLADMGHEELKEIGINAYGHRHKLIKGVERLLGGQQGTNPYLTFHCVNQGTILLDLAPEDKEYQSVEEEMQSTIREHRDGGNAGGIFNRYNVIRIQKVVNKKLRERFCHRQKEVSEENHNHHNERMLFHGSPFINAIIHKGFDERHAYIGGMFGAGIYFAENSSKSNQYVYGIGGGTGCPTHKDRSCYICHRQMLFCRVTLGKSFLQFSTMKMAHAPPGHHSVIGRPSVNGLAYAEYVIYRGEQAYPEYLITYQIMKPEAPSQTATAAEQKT

[2] = Inhibition of Wnt/beta-catenin (unknown origin) expressed in human HEK293 cells expressing MSRII transfected with DNA-LF2K incubated for 24 hrs by luciferase reporter gene assay; details: HEK293, 24 h
[3] = Volume of distribution in Sprague-Dawley rat at 5 mg/kg, po or 2 mg/kg, iv; type: ADME, organism-based; details: in vivo
[4] = Dose normalised AUC in Sprague-Dawley rat at 5 mg/kg, po; type: ADME, organism-based; details: in vivo
[5] = Half life in Sprague-Dawley rat at 5 mg/kg, po or 2 mg/kg, iv; type: ADME, organism-based; details: in vivo
[6] = Clearance in Sprague-Dawley rat at 5 mg/kg, po or 2 mg/kg, iv; type: ADME, organism-based; details: in vivo
[7] = Oral bioavailability in Sprague-Dawley rat at 5 mg/kg; type: ADME, organism-based; details: in vivo
[8] = Half life in Sprague-Dawley rat at 10 mg/kg, po or 0.5 mg/kg, iv; type: ADME, organism-based; details: in vivo
[9] = Dose normalised AUC in Sprague-Dawley rat at 10 mg/kg, po; type: ADME, organism-based; details: in vivo
[10] = Oral bioavailability in Sprague-Dawley rat at 10 mg/kg; type: ADME, organism-based; details: in vivo
[11] = Clearance in Sprague-Dawley rat at 10 mg/kg, po or 0.5 mg/kg, iv; type: ADME, organism-based; details: in vivo
[12] = Volume of distribution in Sprague-Dawley rat at 10 mg/kg, po or 0.5 mg/kg, iv; type: ADME, organism-based; details: in vivo
[13] = molecular target: T2, Poly [ADP-ribose] polymerase tankyrase-2 (Homo sapiens, UniProt Q9H2K2); test: Inhibition of human TNKS2 incubated for 1 to 2 hrs by fluorescence polarization assay
T2 sequence (Q9H2K2 whole entry): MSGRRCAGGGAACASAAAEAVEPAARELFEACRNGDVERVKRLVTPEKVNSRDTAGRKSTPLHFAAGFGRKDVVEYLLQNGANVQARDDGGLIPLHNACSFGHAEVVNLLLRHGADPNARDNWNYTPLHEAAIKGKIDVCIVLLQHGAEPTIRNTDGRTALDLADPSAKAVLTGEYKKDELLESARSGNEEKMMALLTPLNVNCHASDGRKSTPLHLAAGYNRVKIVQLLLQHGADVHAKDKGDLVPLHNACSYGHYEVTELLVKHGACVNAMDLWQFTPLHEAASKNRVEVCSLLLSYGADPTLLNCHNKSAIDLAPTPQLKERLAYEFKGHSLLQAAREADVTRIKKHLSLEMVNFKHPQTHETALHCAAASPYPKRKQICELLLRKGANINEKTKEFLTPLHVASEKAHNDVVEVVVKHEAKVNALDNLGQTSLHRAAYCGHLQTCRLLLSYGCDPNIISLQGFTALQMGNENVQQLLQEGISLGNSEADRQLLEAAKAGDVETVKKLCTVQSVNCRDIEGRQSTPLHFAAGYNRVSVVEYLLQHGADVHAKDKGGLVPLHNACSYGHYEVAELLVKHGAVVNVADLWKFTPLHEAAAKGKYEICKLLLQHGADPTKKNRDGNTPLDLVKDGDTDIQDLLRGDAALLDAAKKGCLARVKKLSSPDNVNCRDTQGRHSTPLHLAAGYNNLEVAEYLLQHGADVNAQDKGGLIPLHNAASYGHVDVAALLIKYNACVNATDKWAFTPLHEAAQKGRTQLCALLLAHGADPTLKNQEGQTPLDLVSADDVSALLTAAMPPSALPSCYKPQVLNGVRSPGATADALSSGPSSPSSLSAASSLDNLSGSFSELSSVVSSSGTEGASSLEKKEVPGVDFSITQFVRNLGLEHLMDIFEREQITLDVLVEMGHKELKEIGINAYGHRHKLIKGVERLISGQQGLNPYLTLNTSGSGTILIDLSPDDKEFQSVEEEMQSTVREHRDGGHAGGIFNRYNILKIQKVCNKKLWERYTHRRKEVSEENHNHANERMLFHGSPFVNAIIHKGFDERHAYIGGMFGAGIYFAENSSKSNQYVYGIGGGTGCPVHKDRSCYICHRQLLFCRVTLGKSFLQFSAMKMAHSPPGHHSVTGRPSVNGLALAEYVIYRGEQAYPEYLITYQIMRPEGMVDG

[14] = Half life in Sprague-Dawley rat at 0.5 mg/kg, iv; type: ADME, organism-based; details: in vivo
[15] = Volume of distribution in Sprague-Dawley rat at 0.5 mg/kg, iv; type: ADME, organism-based; details: in vivo
[16] = Clearance in Sprague-Dawley rat at 0.5 mg/kg, iv; type: ADME, organism-based; details: in vivo

Structure (SMILES)	IC50 [1] [nM]	IC50 [2] [nM]	also measured
Cc1cccc2c1c(=O)n(C[C@H]1CC[C@H](C(=O)Nc3cnn(C)c3)CC1)c(=O)n2Cc1cccc(C(F)(F)F)c1C#N	2.5	10	
Cc1c(F)ccc2c1c(=O)n(C[C@H]1CC[C@H](C(=O)O)CC1)c(=O)n2Cc1cccc(C(F)(F)F)c1C#N		20	
Cc1cccc2c1c(=O)n(C[C@H]1CC[C@H](C(=O)Nc3ccnnc3)CC1)c(=O)n2Cc1cccc(C(F)(F)F)c1C#N	2.5	31.6	
N#Cc1c(Cn2c(=O)n(C[C@H]3CC[C@H](C(=O)O)CC3)c(=O)c3ccccc32)cccc1C(F)(F)F		63.1	Vd [3]: 0.81 L/kg; AUC/dose [4]: 1293 ng·h/mL; half-life [5]: 312 min; clearance [6]: 1.88 mL/min/kg; bioavailability [7]: 14.5%
N#Cc1ccccc1Cn1c(=O)n(C[C@H]2CC[C@H](C(=O)Nc3ccncc3)CC2)c(=O)c2ncccc21	126	79.4	
Cc1ccc2c(c1C)c(=O)n(C[C@H]1CC[C@H](C(=O)Nc3ccncc3)CC1)c(=O)n2Cc1cccc(C(F)(F)F)c1C#N	6.3	25.1	
N#Cc1c(Cn2c(=O)n(C[C@H]3CC[C@H](C(=O)O)CC3)c(=O)c3c(F)cccc32)cccc1C(F)(F)F	39.8	63.1	
Cc1c(F)ccc2c1c(=O)n(C[C@H]1CC[C@H](C(=O)Nc3ccncc3)CC1)c(=O)n2Cc1cccc(C(F)(F)F)c1C#N	3.2	15.8	
Cc1cccc(Cn2c(=O)n(C[C@H]3CC[C@H](C(=O)Nc4ccncc4)CC3)c(=O)c3c(C)cccc32)c1C#N	2	31.6	
N#Cc1c(Cn2c(=O)n(C[C@H]3CC[C@H](C(=O)Nc4ccncc4)CC3)c(=O)c3c(Cl)cccc32)cccc1C(F)(F)F	3.2	6.3	
N#Cc1ccccc1Cn1c(=O)n(C[C@H]2CC[C@H](C(=O)Nc3ccncc3)CC2)c(=O)c2ccccc21	4	6.3	half-life [8]: 43.2 min; AUC/dose [9]: 37.7 ng·h/mL; bioavailability [10]: 3.6%; clearance [11]: 91.2 mL/min/kg; Vd [12]: 4.42 L/kg
N#Cc1ccccc1Cn1c(=O)n(C[C@H]2CC[C@H](C(=O)Nc3ccncc3)CC2)c(=O)c2nc[nH]c21	100	251	
N#Cc1c(Cn2c(=O)n(C[C@H]3CC[C@H](C(=O)Nc4ccncc4)CC3)c(=O)c3c(F)cccc32)cccc1C(F)(F)F	4	15.8	
COc1cccc2c1c(=O)n(C[C@H]1CC[C@H](C(=O)O)CC1)c(=O)n2Cc1cccc(C(F)(F)F)c1C#N	8.1	20	
N#Cc1c(Cn2c(=O)n(C[C@H]3CC[C@H](C(=O)Nc4ccncc4)CC3)c(=O)c3ccccc32)cccc1C(F)(F)F	2	12.6	
N#Cc1ccccc1Cn1c(=O)n(C[C@H]2CC[C@H](C(=O)Nc3ccncc3)CC2)c(=O)c2ccncc21	63.1	25.1	
N#Cc1c(Cn2c(=O)n(C[C@H]3CC[C@H](C(=O)O)CC3)c(=O)c3c(Cl)cccc32)cccc1C(F)(F)F	15.8	63.1	
Cc1cccc2c1c(=O)n(C[C@H]1CC[C@H](C(=O)Nc3ccncc3)CC1)c(=O)n2Cc1ccccc1C#N	3.2	10	
Cc1cccc2c1c(=O)n(C[C@H]1CC[C@H](C(=O)Nc3ccncc3)CC1)c(=O)n2Cc1cccc(C(F)(F)F)c1C#N	3.2	39.8	
Cc1ccc(NC(=O)[C@H]2CC[C@H](Cn3c(=O)c4c(C)cccc4n(Cc4cccc(C(F)(F)F)c4C#N)c3=O)CC2)cn1	4	15.8	
N#Cc1ccccc1Cn1c(=O)n(C[C@H]2CC[C@H](C(=O)NCc3ccccc3)CC2)c(=O)c2ccccc21	631	> 5000	IC50 [13]: 7940 nM
Cc1c(C(N)=O)ccc2c1c(=O)n(C[C@H]1CC[C@H](C(=O)Nc3ccncc3)CC1)c(=O)n2Cc1cccc(C(F)(F)F)c1C#N	25.1	63.1	
COc1cccc2c1c(=O)n(C[C@H]1CC[C@H](C(=O)Nc3ccncc3)CC1)c(=O)n2Cc1cccc(C(F)(F)F)c1C#N	4	12.6	
Cc1cccc2c1c(=O)n(C[C@H]1CC[C@H](C(=O)Nc3ccncc3)CC1)c(=O)n2Cc1cccc(Cl)c1C#N	2	6.3	half-life [14]: 37.2 min; Vd [15]: 2.1 L/kg; clearance [16]: 45.9 mL/min/kg
Cc1ccc2c(c1C)c(=O)n(C[C@H]1CC[C@H](C(=O)O)CC1)c(=O)n2Cc1cccc(C(F)(F)F)c1C#N	15.8	251	
